Data set [1] relates to TCRαβ+ and TCRγδ+ T-ALL patients-derived xenografts. The following applies: cited from earlier work.
The conditions of data set [2]: in vivo; cited from earlier work.
For a further data set, the system named is T-ALL PDX cells. Kind of data set: Transcriptome profiling (Affymetrix microarray) of T-ALL PDX in response to anti-CD3. Type of data set: in vivo, NSG mice. The settings on record: 40 μg, 6 hours; for expression of genes of interest (TNFR super family pathway, PD1): FIG. 1B; for TCR-induced signature: number of deregulated genes: 2X, p-value<0.05, common to both monoclonal antibodies, in vivo. The text has this:
Leukemic cells were then collected, flow-cytometry sorted, RNA isolated and analyzed using human Affymetrix arrays. […] FC: Fold Change. C RNA expression analysis (digitalized numeration of transcripts-mRNA) of genes of interest in M106 xenograft overtime after OKT3 treatment using Nanostring arrays: TNFα, LTα, TNFRSF9 (4-1BB), TNFRSF1B (TNFR2), TNFRSF4 (OX40) and PDCD1 (PD1). D Flow cytometry analysis of TNFRSF1B (TNFR2), TNFRSF1A (TNFR1), TNFRSF9 (4-1BB), TNFRSF4 (OX40) and PDCD1 (PD 1) cell surface expression in leukemic cells isolated from mice treated with 40μg of control IgG or OKT3 for 24h.
Total RNA was isolated from flow-cytometry-sorted leukemic cells (FSChi, hCD7+, hCD 45+) (6 hours following treatment with either 40 μg anti-CD 3 mAb or control IgG 2a antibody), using the Rneasy kit (QIAGEN). cRNA synthesis and hybridization of GeneChip Human Gene 2.0ST Array (Affymetrix) were according to the manufacturer's instructions, as described (http: //www-microarrays. u-strasbg. fr). A paired Student's t-test was performed to compare gene intensities in the different biological replicates. […] Hierarchical clustering analysis and pathway analyses on regulated genes (KEGG) were performed by Genosplice company.

Data set [3] concerns caspase 8 activity in T-ALL cells. In words: Caspase 8 activity by flow cytometry in primary leukemic cells from treated leukemic mice. More on the design: species or system NSG mice. The settings on record: in vivo, 6 h; FIG. 2. Here is the method:
FIG. 2: Caspase 8 activity as measured by flow cytometry in primary leukemic cells collected from leukemic mice treated by control IgG (n=3) or anti-CD3 (OKT3) (n=3) mAbs for 6 h.
Cell suspensions prepared from mouse lymphoid organs, bone marrow, or blood were stained with fluorochrome-labeled antibodies and analyzed on a FACSCanto cytometer (BD Biosciences), as recommended by manufacturer. Data are analyzed using Diva, CellQuest (BD Biosciences) and FlowJo (TreeStar) softwares. Antibodies used are: CD7-FITC (4H9), CD45-APC (2D4) (eBioscience), PD1-Alexa Fluor 647 (EH12.2H7) (Biolegend).

On to foralumab: a fully human anti-CD3 mAb, for which the “final outcome of monotherapy” value in data set [1] (mice carrying TCR+ T-ALL PDX) was “leukemia relapse and resistance to TCR-directed therapy”. For the same substance, in data set [1] (monotherapy of T-ALL PDX), the “anti-leukemic effects over time” value was “profound anti-leukemic effects”, the host survival entry is recorded as “improved host survival”, the leukemic cells apoptosis result is given as “within hours” and the remission result was “durable remission”. In addition, in data set [2], the “adverse effects in humans” value was “only minor adverse effects”.
As to “OKT3: anti-CD3ε monoclonal antibody (IgG2a)”, in the data set on T-ALL PDX cells, the “expression of genes of interest (TNFR super family pathway, PD1)” value was “significantly upregulated” and the “TCR-induced signature: number of deregulated genes” value is around 600. The “caspase 8 activity in T-ALL cells” value in data set [3] is recorded as “fast induction”.
In the case of “teplizumab: a humanized, mutated version of OKT3 which is FDA-approved in prevention of type I diabetes”, in the data set with T-ALL PDX cells, the “expression of genes of interest (TNFR super family pathway, PD1)” value was “significantly upregulated” and the “TCR-induced signature: number of deregulated genes” value was around 600. Also, the “adverse effects in humans” value in data set [2] is “only minor adverse effects”.
